Reference: the Deep4Chem optical property database
Values joined by “and” are separate entries in the source; they are usually repeats but may differ in a detail not shown here. Equal entries are not always repeated.

Assay: solvent given as SMILES

Compound Nc1ccc2c(C(F)(F)F)cc(=O)oc2c1 has an absorption maximum (in C1CCC2CCCCC2C1) of 349 nm, an absorption maximum (in C1CCCCC1) of 348 nm and an absorption maximum (in C1COCCO1) of 364 nm. The absorption maximum (in CC1CCCCC1) was 348 nm, the absorption maximum (in CC#N) was 365 nm and 367 nm and the absorption maximum (in CC(C)=O) was 371 nm. For the same compound, the absorption maximum (in CC(C)O) was 384 nm, the absorption maximum (in CCC(C)CC) was 347 nm and the absorption maximum (in CCCC(C)C) was 347 nm. For the same compound, the absorption maximum (in CCCCCC) was 347 nm, the absorption maximum (in CCCCCCCCO) was 383 nm and the absorption maximum (in CCCCCCO) was 384 nm. The absorption maximum (in CCCCO) was 383 nm, the absorption maximum (in CCO) was 383 nm and the absorption maximum (in CCOC(C)=O) was 368 nm. For the same compound, the absorption maximum (in CN(C)C=O) was 378 nm, the absorption maximum (in CO) was 378 nm and the absorption maximum (in CS(C)=O) was 386 nm.

Work on COc1ccccc1-c1c2ccc(=[N+]3CCCCC3)cc-2oc2cc(N3CCCCC3)ccc12 yielded an absorption maximum (in CCO) of 564 nm and an absorption maximum (in ClCCl) of 566 nm.

COc1ccc2cc(-c3ccc([N+](=O)[O-])cc3)ccc2c1 showed an absorption maximum (in C1CCOC1) of 344 nm, an absorption maximum (in CC#N) of 341 nm and an absorption maximum (in ClC(Cl)Cl) of 346 nm. The absorption maximum (in ClCCl) was 345 nm.

Work on COc1ccc(-c2c3ccc([nH]3)c3nc(c(-c4ccc([N+](=O)[O-])cc4)c4ccc([nH]4)c4ccc([nH]4)c(-c4ccc(OC)cc4)c4ccc2o4)C=C3)cc1 yielded an absorption maximum (in C1CCOC1) of 446 nm, an absorption maximum (in Cc1ccccc1) of 448 nm and an absorption maximum (in c1ccccc1) of 448 nm.

For C#CCNC1=C2C=C(c3cc4n(c3)[B-](F)(F)[N+]3=CC=CC3=C4c3c(C)cc(C)cc3C)C(C)=[N+]2[B-](F)(F)n2c(C)ccc21, the absorption maximum (in C1CCCCC1) was 568 nm and the absorption maximum (in CCOC(C)=O) was 568 nm.

O=P1(c2ccccc2)C2=C(c3ccccc31)[Si](c1ccccc1)(c1ccccc1)c1cc(N(c3ccccc3)c3ccccc3)ccc12 (stereo not given) gave an absorption maximum (in CC#N) of 456 nm, an absorption maximum (in CO) of 466 nm and an absorption maximum (in Cc1ccccc1) of 459 nm.

Compound CC(C)[Si](C#Cc1c2ccccc2c(C#C[Si](C(C)C)(C(C)C)C(C)C)c2nc3c4ccccc4c(=O)c4ccccc4c3nc12)(C(C)C)C(C)C has an absorption maximum (in ClCCl) of 509 nm.

With CN1C2=Nc3n(C)c4ccccc4[n+]3CN2c2ccccc21 the absorption maximum (in CO) was 339 nm.

CCCCCCCCCCOc1cc(OCCCCCCCCCC)cc(C2=C3C(/C=C/c4ccc(OC)cc4)=C(C#Cc4ccc(C(C)(C)C)cc4)C(/C=C/c4ccc(OC)cc4)=[N+]3[B-](F)(F)n3c(/C=C/c4ccc(OC)cc4)c(C#Cc4ccc(C(C)(C)C)cc4)c(/C=C/c4ccc(OC)cc4)c32)c1 gave an absorption maximum (in ClC(Cl)Cl) of 732 nm.

In the case of c1ccc2c(c1)c1ccccc1n2-c1ccc2cc(-c3ccc(-c4ccc(-c5cc6ccc(-n7c8ccccc8c8ccccc87)cc6o5)cc4)cc3)oc2c1, the absorption maximum (in Cc1ccccc1) is reported as 369 nm and the absorption maximum (in c1ccc2c(c1)c1ccccc1n2-c1ccc(-c2ccc(-n3c4ccccc4c4ccccc43)cc2)cc1) is reported as 380 nm.

COc1cc(OC)c2cc(-c3ccc(-c4cc5c(OC)cc(OC)cc5oc4=O)cc3)c(=O)oc2c1 showed an absorption maximum (in ClC(Cl)Cl) of 372 nm.

Compound COc1ccc(-c2nc(-c3ccc(C#N)cc3)[nH]c2-c2ccc(OC)cc2)cc1 has an absorption maximum (in CO) of 354 nm.

Cc1cc(-c2ccc(-c3ccccc3)cc2)cc(C)[o+]1 showed an absorption maximum (in ClCCl) of 402 nm.

Work on COc1ccccc1C1=[N+]2C(=C(c3ccccc3)c3c4c(c(-c5ccccc5OC)n3[B-]2(F)F)C2C=CC4CC2)C2=C1C1C=CC2CC1 (stereo not given) yielded an absorption maximum (in ClCCl) of 556 nm.

COc1c2ccccc2c(OC)c2c(C#Cc3ccccc3)c3cc4ccccc4cc3c(C#Cc3ccccc3)c12 gave an absorption maximum (in ClCCl) of 704 nm.

c1ccc2c(c1)c1ccccc1n2-c1ccc(-c2ccn3nc(-c4ccc(-n5c6ccccc6c6ccccc65)cc4)nc3c2)cc1 gave an absorption maximum (in C1CCOC1) of 342 nm.

In the case of CCCCOc1c(C=C2N(C)c3ccccc3C2(C)C)c(=O)c1=S, the absorption maximum (in CCO) is reported as 500 nm.

For COc1cccc(-c2nc(-c3ccccc3)c(-c3ccccc3)[nH]2)c1, the absorption maximum (in CO) was 300 nm.

For CCOC(=O)/C=C/c1cc2ccc(-c3cn(Cc4ccccc4)nn3)cc2oc1=O, the absorption maximum (in CCO) was 358 nm.

Work on CN1/C(=C\C=C\C2=C3C=CC(c4ccccc4)=[N+]3[B-](F)(F)n3c2ccc3-c2ccccc2)C(C)(C)c2ccccc21 yielded an absorption maximum (in CC#N) of 671 nm.

For S=P1(c2ccccc2)c2cccc3c4c5ccccc5c5ccccc5c4c4ccc1n4c23 (stereo not given), the absorption maximum (in ClCCl) was 422 nm.

With CN1c2ccc3c(c2-c2ccccc2S1(=O)=O)-c1ccccc1S(=O)(=O)N3C the absorption maximum (in ClCCl) was 350 nm.

In the case of CCCCN(CCCC)c1ccc2c#cc3cc4c#cc5ccc(N(CCCC)CCCC)cc5c#cc#cc5cc(C(F)(F)F)ccc5c#cc4cc3c#cc3ccc(C(F)(F)F)cc3c#cc#cc2c1, the absorption maximum (in ClCCl) is reported as 454 nm.

Work on COc1ccc(-c2oc3cccc4c5c(-c6ccc(OC)cc6)c(=N)oc6cccc(c2c34)c65)cc1 yielded an absorption maximum (in ClC(Cl)Cl) of 408 nm.

CC/[NH+]=c1\cc2oc3cc(NCCO)c4ccccc4c3nc-2cc1C showed an absorption maximum (in CCO) of 590 nm and an absorption maximum (in O) of 590 nm.

CCCC1=Cc2nc1ccc1[nH]c(cc1CCC)c1nc(c(N)cc3[nH]c2cc3CCC)C(CCC)=C1 showed an absorption maximum (in Cc1ccccc1) of 710 nm.

Compound C[Si](C)(C)c1sc([Si](C)(C)C)c2c1sc1c3sc4c(sc5c4sc4c([Si](C)(C)C)sc([Si](C)(C)C)c45)c3sc12 has an absorption maximum (in ClC(Cl)Cl) of 405 nm.
